Laboratory results: ChEMBL document CHEMBL1201862, “PubChem BioAssay data set” (2004)
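1) Cells in 96-well plates. 2) Compound, 48 h, 5 concentrations. 3) Linear interpolation between surrounding doses. 4) Unreached endpoint = highest concentration. Abbreviation: GI50, concentration required for 50% inhibition of growth.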 The source made the active and inactive calls. Cut-off read from the data, not from the text of the source: active = GI50 up to about 1.1 µM and inactive = higher.

Legend:
Assay in all cases: inhibition of tumour cell growth, NCI panel, 48 h
[1] = tested on: HOP-92
[2] = tested on: COLO 205
[3] = tested on: OVCAR-8
[4] = tested on: SN12C
[5] = tested on: UO-31
[6] = tested on: HT-29
[7] = tested on: MDA-MB-231
[8] = tested on: K562
[9] = tested on: NCI/ADR-RES
[10] = tested on: EKVX
[11] = tested on: ACHN
[12] = tested on: NCI-H460
[13] = tested on: SK-MEL-5
[14] = tested on: RXF 393
[15] = tested on: SF-539
[16] = tested on: Malme-3M
[17] = tested on: MCF7
[18] = tested on: U-251
[19] = tested on: M14
[20] = tested on: BT-549

| SMILES | GI50 [1] | GI50 [2] | GI50 [3] | GI50 [4] | GI50 [5] | GI50 [6] | GI50 [7] | GI50 [8] | GI50 [9] | GI50 [10] | GI50 [11] | GI50 [12] | GI50 [13] | GI50 [14] | GI50 [15] | GI50 [16] | GI50 [17] | GI50 [18] | GI50 [19] | GI50 [20] |
| --- | --- | --- | --- | --- | --- | --- | --- | --- | --- | --- | --- | --- | --- | --- | --- | --- | --- | --- | --- | --- |
| O=C(Nc1ccc(N2C(=O)CSC2c2cccs2)cc1)c1ccc(N2C(=O)CSC2c2cccs2)cc1 (stereo not given) | > 100 µM (inactive) | > 100 µM (inactive) | > 100 µM (inactive) | > 100 µM (inactive) | > 100 µM (inactive) | > 100 µM (inactive) | > 100 µM (inactive) | 56.2 µM (inactive) | > 100 µM (inactive) | > 100 µM (inactive) | > 100 µM (inactive) | > 100 µM (inactive) | > 100 µM (inactive) | > 100 µM (inactive) | > 100 µM (inactive) | > 100 µM (inactive) | 62.1 µM (inactive) | 86.5 µM (inactive) | > 100 µM (inactive) | > 100 µM (inactive) |
| CC1=CC(C)(C)Nc2ccc(CSc3ccccc3)cc21 | 34.8 µM (inactive) | 22 µM (inactive) | 46.2 µM (inactive) | 19.1 µM (inactive) | 22.1 µM (inactive) | 16.1 µM (inactive) | 32.9 µM (inactive) | 18 µM (inactive) | 41.9 µM (inactive) | 22.1 µM (inactive) | 46.6 µM (inactive) | 24.9 µM (inactive) | 17.1 µM (inactive) | 16.3 µM (inactive) | 44.8 µM (inactive) | 17.9 µM (inactive) | 22 µM (inactive) | 31.8 µM (inactive) | 26.6 µM (inactive) | 59.2 µM (inactive) |
| c1cncc(CNCc2cccnc2)c1 | > 100 µM (inactive) | > 100 µM (inactive) | > 100 µM (inactive) | > 100 µM (inactive) | > 100 µM (inactive) | > 100 µM (inactive) | > 100 µM (inactive) | > 100 µM (inactive) | > 100 µM (inactive) | > 100 µM (inactive) | > 100 µM (inactive) | > 100 µM (inactive) | > 100 µM (inactive) | > 100 µM (inactive) | > 100 µM (inactive) | > 100 µM (inactive) | > 100 µM (inactive) | > 100 µM (inactive) | > 100 µM (inactive) | > 100 µM (inactive) |
| Cc1ccc(C(=O)/C=C2\Nc3ccccc3SC2=O)c(C)c1 | 23.4 µM (inactive) | 53.1 µM (inactive) | 35.6 µM (inactive) | 40.1 µM (inactive) | 32.5 µM (inactive) | 45.6 µM (inactive) | > 100 µM (inactive) | 41.3 µM (inactive) | 42.3 µM (inactive) | 54.3 µM (inactive) | 28.6 µM (inactive) | 28.6 µM (inactive) | 38.5 µM (inactive) | < 0.01 µM (active) | 43 µM (inactive) | 84.3 µM (inactive) | 31 µM (inactive) | 44.9 µM (inactive) | 62.1 µM (inactive) | 6.9 µM (inactive) |
| CCCCCCCC(=O)OC[n+]1ccc(-c2c(COC(=O)NC(C)C)c(COC(=O)NC(C)C)c3n2CCC3)cc1 | 26.4 µM (inactive) | 48.9 µM (inactive) | 43.1 µM (inactive) | 33.4 µM (inactive) | 42.4 µM (inactive) | 42.6 µM (inactive) | 48.8 µM (inactive) | 34.4 µM (inactive) | 53.8 µM (inactive) | > 79.6 µM (inactive) | 20.4 µM (inactive) | 21.4 µM (inactive) | 34.8 µM (inactive) | 21.1 µM (inactive) | 23.1 µM (inactive) | 44.9 µM (inactive) | 30.2 µM (inactive) | 51.5 µM (inactive) | 49.8 µM (inactive) | > 52.7 µM (inactive) |
| C=C(C)[C@H]1Cc2c(ccc3c2O[C@@H]2COc4cc(OC)c(OC)cc4[C@@H]2C3=O)O1 [ROTENONE] | 0.116 µM (active) | 0.118 µM (active) | 0.257 µM (active) | 0.404 µM (active) | 0.131 µM (active) | 0.127 µM (active) | 1.02 µM (active) | 0.0929 µM (active) | 0.0635 µM (active) | 0.736 µM (active) | 0.0522 µM (active) | 0.0891 µM (active) | 0.0203 µM (active) | 0.0836 µM (active) | 0.128 µM (active) | 0.0762 µM (active) | 0.281 µM (active) | 0.224 µM (active) | 0.21 µM (active) | 0.164 µM (active) |
| Cc1cccc2c(N)c3cccc(C(=O)NCCNCCN)c3nc12 | 7.6 µM (inactive) | 2.71 µM (inactive) | 0.995 µM (active) | 0.179 µM (active) | 12.3 µM (inactive) | 2.9 µM (inactive) | 1.96 µM (inactive) | 8.28 µM (inactive) | 27.9 µM (inactive) | 10.4 µM (inactive) | 3.8 µM (inactive) | 0.558 µM (active) | 5.11 µM (inactive) | 12.6 µM (inactive) | 1.61 µM (inactive) | 15.4 µM (inactive) | 0.369 µM (active) | 0.736 µM (active) | 28.7 µM (inactive) | 14.6 µM (inactive) |
| C[C@]12CC[C@@H]3c4cc(OCC(F)(F)F)c(O)cc4CC[C@H]3[C@@H]1CC[C@@H]2O | 9.31 µM (inactive) | 15 µM (inactive) | 4.83 µM (inactive) | 1.86 µM (inactive) | 8.65 µM (inactive) | 4.06 µM (inactive) | 0.536 µM (active) | 0.438 µM (active) | 2.24 µM (inactive) | 8.17 µM (inactive) | 7.74 µM (inactive) | 1.44 µM (inactive) | 3.38 µM (inactive) | 1.52 µM (inactive) | 1.38 µM (inactive) | 0.673 µM (active) | 2.36 µM (inactive) | 2.22 µM (inactive) | 1.52 µM (inactive) | 18.4 µM (inactive) |
| COc1ccc2c(c1)N=C1CSC(c3ccccc3Cl)N1C2 (stereo not given) | 18.3 µM (inactive) | 14.9 µM (inactive) | 16.1 µM (inactive) | 11.1 µM (inactive) | 0.351 µM (active) | 4.82 µM (inactive) | 27.4 µM (inactive) | 7.82 µM (inactive) | 21.6 µM (inactive) | 7.98 µM (inactive) | 11.8 µM (inactive) | 3.12 µM (inactive) | 17.1 µM (inactive) | 11.3 µM (inactive) | 5.48 µM (inactive) | 23.4 µM (inactive) | 12.2 µM (inactive) | 10.8 µM (inactive) | 13 µM (inactive) | 43.2 µM (inactive) |
| Cc1ccsc1C(=O)C(CC(=O)c1cccs1)c1ccsc1 (stereo not given) | > 100 µM (inactive) | > 100 µM (inactive) | > 100 µM (inactive) | > 100 µM (inactive) | 54.1 µM (inactive) | 93.1 µM (inactive) | 77.6 µM (inactive) | > 100 µM (inactive) | 37.7 µM (inactive) | 79.6 µM (inactive) | > 100 µM (inactive) | 33.5 µM (inactive) | 28.2 µM (inactive) | > 100 µM (inactive) | > 100 µM (inactive) | > 100 µM (inactive) | 76.2 µM (inactive) | > 100 µM (inactive) | > 100 µM (inactive) | 66.5 µM (inactive) |
| Cc1c(/N=C\c2ccc(N(CCC#N)CCC#N)cc2)c(=O)n(-c2ccccc2)n1C | 45.7 µM (inactive) | > 100 µM (inactive) | > 100 µM (inactive) | > 93.5 µM (inactive) | > 100 µM (inactive) | > 100 µM (inactive) | 77.4 µM (inactive) | > 100 µM (inactive) | > 100 µM (inactive) | > 93.5 µM (inactive) | 22.5 µM (inactive) | > 100 µM (inactive) | > 100 µM (inactive) | 24 µM (inactive) | 31.6 µM (inactive) | > 100 µM (inactive) | > 63.7 µM (inactive) | 39.2 µM (inactive) | 92.7 µM (inactive) | > 100 µM (inactive) |
| Cc1nc(-n2[nH]c(C)c(CCO)c2=O)[nH]c(=O)c1CCO | > 100 µM (inactive) | > 100 µM (inactive) | > 100 µM (inactive) | > 100 µM (inactive) | > 100 µM (inactive) | > 100 µM (inactive) | > 100 µM (inactive) | > 100 µM (inactive) | > 100 µM (inactive) | > 100 µM (inactive) | > 100 µM (inactive) | > 100 µM (inactive) | > 100 µM (inactive) | > 100 µM (inactive) | > 100 µM (inactive) | < 0.01 µM (active) | > 100 µM (inactive) | > 100 µM (inactive) | > 100 µM (inactive) | > 100 µM (inactive) |
| CC[S+]([O-])c1c2cc(OC)ccc2nc2ccc(OC)cc12 (stereo not given) | 7.16 µM (inactive) | 6.08 µM (inactive) | 5.55 µM (inactive) | 4.58 µM (inactive) | 4.82 µM (inactive) | 4.09 µM (inactive) | 5.62 µM (inactive) | 2.42 µM (inactive) | 20.4 µM (inactive) | 16.9 µM (inactive) | 4.79 µM (inactive) | 29.5 µM (inactive) | 16.4 µM (inactive) | 4.71 µM (inactive) | 6.79 µM (inactive) | 5.12 µM (inactive) | 2.84 µM (inactive) | 16.7 µM (inactive) | 10.2 µM (inactive) | 17.5 µM (inactive) |
| CCOC(=O)c1c(C)n(CCN2CCN(C)CC2)c2ccc(OC)cc12 | 14 µM (inactive) | 16.9 µM (inactive) | > 100 µM (inactive) | 50.9 µM (inactive) | 35.1 µM (inactive) | 24.7 µM (inactive) | 24.5 µM (inactive) | 20.7 µM (inactive) | 69.7 µM (inactive) | > 100 µM (inactive) | 65 µM (inactive) | 48.9 µM (inactive) | 16.5 µM (inactive) | 30.1 µM (inactive) | 30 µM (inactive) | 21.9 µM (inactive) | 33.6 µM (inactive) | 31.8 µM (inactive) | 16 µM (inactive) | 45.4 µM (inactive) |
